Structures can show the parent of a compound that is named as a salt.
Tests used:
human μ opioid receptor = human μ opioid receptor (Homo sapiens (Human), UniProt P35372); assay: Alternate functional activity ([35S]GTPγS binding) assay, SPA beads; format: biochemical; details: alternate assay: [35S]GTPγS 0.020 nM, CHO cell membranes with WGA PVT SPA beads
Description: The [^35S]GTPγS assay measures the functional properties of a compound by quantifying the level of G-protein activation following agonist binding in studies using stably transfected cells, and is considered to be a measure of the efficacy of a compound. Membranes from CHO (Chinese Hamster Ovary) cells that stably expressed one type of the cloned human opioid receptor human were used in the experiments. The assay buffer consisted of 50 mM Tris-HCl, pH 7.4, 3 mM MgCl2, 0.2 mM EGTA, 5 μM GDP, and 100 mM NaCl. CHO cell membranes stably expressing the human p opioid receptor were pre-incubated with scintillation proximity assay beads from PerkinElmer® (WGA PVT SPA) for 30 minutes, at 8 µg membrane and […] beads in a volume of 0.1 mL per reaction. In a final volume of 0.2 mL, 11 different concentrations of each test compound were incubated with the membrane-SPA bead mixture and a final concentration of 0.020 nM [35S]GTPγS for 1.5 hours with gentle shaking. Reactions were then incubated for 5 hours. Data are the mean EC50 values ±S.E.M. EC50 values (nM) for compounds 12, 16, 19, 20, 149, 151, 152, 157, 160, 161, 164-169, 172, 173, 180-197, and 199-207 are shown in Table 1.

μ-receptor = μ-receptor (Homo sapiens (Human), UniProt P35372); assay: Alternate receptor binding assay, competitive displacement of [3H]DAMGO; details: alternate assay: 0.8 nM [3H]DAMGO, 5 mM MgCl2, CHO cell membrane protein, 120 min
Male Sprague-Dawley rats [1] = assay: animal or person; format: in vivo, rat; details: sc; minimum dose at which maximal reversal of hind paw weight bearing (50±0.5%) was achieved; subcutaneous administration; rat; read-out: MEMD SC CFA
Male Sprague-Dawley rats [2] = details: maximum pCO2 within 2 hours of administration, subcutaneous, rat

Row | Structure (SMILES) | EC50 (human μ opioid receptor) [nM] | Ki (μ-receptor) [nM] | minimal effective dose (Male Sprague-Dawley rats [1]) [mg/kg] | <60 mmHg @ 10X CFA MEMD (Male Sprague-Dawley rats [2]; dose 10× CFA MEMD) | <60 mmHg @ 100X CFA MEMD (Male Sprague-Dawley rats [2]; dose 100× CFA MEMD) | Ki (μ-receptor; hydrochloride) [nM]
1 | COC1(c2cccc(C(N)=O)c2)C2CCCC1CN([C@H]1C[C@@H]3[C@H](C1)C3(F)F)C2 (stereo partly drawn) [Compound 200] | < 10 | < 1 |  |  |  | 
2 | COC1(c2ccnc(C(N)=O)c2)C2CCCC1CN(C1CCC(F)(F)CC1)C2 (stereo not drawn) [Compound 195] | > 75 | 1 to 5 |  |  |  | 
3 | CCOC1(c2ccc(F)c(C(N)=O)c2)C2CCCC1CNC2 (stereo not drawn) [Compound 183] | > 75 | > 5 |  |  |  | 
4 | COC1(c2cccc(C(N)=O)c2)C2CCCC1CN(C1CN(c3ccccc3)C1)C2 [Compound 151, 3-((1R,5S,9r)-9-methoxy-3-(1-phenylazetidin-3-yl)-3-azabicyclo[3.3.1]nonan-9-yl)benzamide (S)-2-hydroxysuccinate] | < 10 | < 1 |  |  |  | 
5 | CCOC1(c2cccc(C(N)=O)c2)C2CCCC1CNC2.Cl [Compound 160, 3-((1R,5S,9r)-9-ethoxy-3-azabicyclo[3.3.1]nonan-9-yl)benzamide] | 10 to 75 | 1 to 5 | 0.1 | + (resulted in a maximum pCO2 value of less than 60 mmHg within 2 hours of administration) | + (resulted in a maximum pCO2 value of less than 60 mmHg within 2 hours of administration) | 
6 | CCOC1(c2cccc(C(N)=O)c2F)C2CCCC1CNC2 (stereo not drawn) [Compound 180] | > 75 | > 5 |  |  |  | 
7 | COC1(c2cccc(C(N)=O)c2)C2CCCC1CN(C[C@H]1C[C@@H]3C[C@@H]3C1)C2 (stereo partly drawn) [Compound 152, 3-((1R,5s,9R)-3-((1R,3s,5S)-bicyclo[3.1.0]hexan-3-ylmethyl)-9-methoxy-3-azabicyclo[3.3.1]nonan-9-yl)benzamide hydrochloride] | < 10 | < 1 |  |  |  | 
8 | CCOC1(c2cc(C(N)=O)ccc2Cl)C2CCCC1CNC2 (stereo not drawn) [Compound 188] | > 75 | > 5 |  |  |  | 
9 | COC1(c2cccc(C(N)=O)c2)C2CCCC1CN(CCCF)C2 [Compound 157, 3-((1R,5S,9r)-3-(3-fluoropropyl)-9-methoxy-3-azabicyclo[3.3.1]nonan-9-yl)benzamide hydrochloride] | 10 to 75 | < 1 |  |  |  | 
10 | NC(=O)c1cccc(C2(OCC(F)F)C3CCCC2CNC3)c1 (stereo not drawn) [Compound 182] | 10 to 75 | > 5 |  |  |  | 
11 | COC1(c2cccc(C(N)=O)c2)C2CCCC1CN(Cc1cnc(C)[nH]1)C2 [Compound 149, 3-((1R,5S,9r)-9-methoxy-34(2-methyl-1H-imidazol-4-yl)methyl)-3-azabicyclo[3.3.1]nonan-9-yl)benzamide hydrochloride] | < 10 | < 1 |  |  |  | 
12 | NC(=O)c1cccc(C2(OCCF)C3CCCC2CNC3)c1 (stereo not drawn) [Compound 187] | 10 to 75 | > 5 |  |  |  | 
13 | COC1(c2ccnc(C(N)=O)c2)C2CCCC1CN([C@H]1C[C@@H]3[C@H](C1)C3(F)F)C2 (stereo partly drawn) [Compound 197] | < 10 | < 1 |  |  |  | 
14 | COC1(c2ccnc(C(N)=O)c2)C2CCCC1CN(C1CC3CCC(C1)O3)C2 (stereo not drawn) [Compound 202] | > 75 | > 5 |  |  |  | 
15 | COC1(c2cccc(C(N)=O)c2)C2CCCC1CN([C@H](C)c1cnc[nH]1)C2 (stereo partly drawn) [Compound 20, 3-((1R,5S,9R)-3-((R)-1-(1H-imidazol-5-yl)ethyl)-9-methoxy-3-azabicyclo[3.3.1]nonan-9-yl)benzamide hydrochloride] | 10 to 75 | 1 to 5 |  |  |  | 
16 | COC1(c2cccc(C(N)=O)c2)C2CCCC1CN([C@@H](C)c1cnc[nH]1)C2 (stereo partly drawn) [Compound 19, 3-((1R,5S,9S)-3-((S)-1-(1H-imidazol-5-yl)ethyl)-9-methoxy-3-azabicyclo[3.3.1]nonan-9-yl)benzamide hydrochloride] | < 10 | < 1 |  |  |  | 
17 | COC1(c2cccc(C(N)=O)c2)C2CCCC1CN(C1CC3CCC(C1)O3)C2 (single isomer, unassigned) [Compound 16, hydrochloride] | < 10 | < 1 |  |  |  | 
18 | COC1(c2cccc(C(N)=O)c2)C2CCCC1CN(C1C[C@@H]3C[C@@H]3C1)C2 (stereo partly drawn) [Compound 199] | < 10 | < 1 |  |  |  | 
19 | COC1(c2cccc(C(N)=O)c2)C2CCCC1CN(C1CC3CCC(C1)O3)C2 (stereo not drawn) [Compound 203] | > 75 | 1 to 5 |  |  |  | 
20 | COC1(c2ccnc(C(N)=O)c2)C2CCCC1CN(C1CC3CCC(C1)O3)C2 [Compound 12, 4-((1R,5S,9R)-3-((1R,3s,5S)-8-oxabicyclo[3.2.1]octan-3-yl)-9-methoxy-3-azabicyclo[3.3.1]nonan-9-yl)picolinamide hydrochloride] | 10 to 75 |  |  |  |  | < 1
21 | COC1(c2cccc(C(N)=O)c2)C2CCCC1CN(C1CCC(F)(F)CC1)C2 (stereo not drawn) [Compound 196] | 10 to 75 | < 1 |  |  |  | 
